How the values were obtained:
intratumoral vessels = test: Phosphatidylcholine administration to lysophosphatidic acid receptor 4-deficient mice; type: in vivo, mouse
From the text: Lysophosphatidic acid is enzymatically synthesized from lysophosphatidylcholine, which is produced by enzymatic decomposition of phosphatidylcholine. Considering this, there was a possibility that the newly discovered effects of phosphatidylcholine might be underlain by the mechanism that the administered phosphatidylcholine undergoes in vivo decomposition into lysophosphatidic acid, which activates a lysophosphatidic acid receptor and thereby produces the effects. However, the structural improvement of intratumoral vessels and the promotion of immune cell infiltration after phosphatidylcholine administration were not observed after lysophosphatidyicholine administration (see Reference Example 1). […] Therefore, the effects of phosphatidylcholine were proven not to be mediated by a lysophosphatidic acid receptor.

LLC cells [1] = test: Various phosphatidylcholines: intratumoral lymphocyte infiltration, LLC cancer-bearing mice (Example 9); type: in vivo, mouse; conditions: LLC tumor; PC 3 mg/kg i.v. once daily day 7 to 13; harvested day 14; CD4- and CD8-positive cells
From the text: The PCs of Group A were dioctanoyl phosphatidylcholine (Avanti POLAR LIPIDS), dimyristoyl phosphatidylcholine (Nippon Fine Chemical), distearoyl phosphatidylcholine (Nippon Fine Chemical), dioleoyl phosphatidylcholine (Nippon Fine Chemical) and dilinoleoyl phosphatidylcholine (Avanti POLAR LIPIDS). The PCs of Group B were (1-palmitoyl-2-myristoyl) phosphatidylcholine (Avanti POLAR LIPIDS) and (1-palmitoyl-2-oleoyl) phosphatidylcholine (Avanti POLAR LIPIDS).
In the same manner as in Example 1, LLC cells ([…] cells in 100 μL of PBS per animal) were subcutaneously injected into C57BL/6NCrSlc mice aged 8 weeks (females, SLC, Inc.) to generate cancer-bearing mice. For 7 consecutive days from day 7 to day 13 post-cancer cell inoculation, the PCs indicated above were administered at a dose of 3 mg/kg (100 μL) once daily via the mouse tail vein. The vehicle was administered to the mice of the control group. On the day following the final administration (day 14 post-inoculation), the tumors were harvested from the mice. In the same manner as in Example 1, tumor tissue sections were prepared, tumor vasculature was observed, and intratumoral lymphocyte infiltration was examined.

[2] = system: human umbilical vein endothelial cells (HUVECs); test: Tubulogenesis of cultured HUVECs on Matrigel with VEGF (Examples 13 and 14); type: cell-based; conditions: HUVEC on Matrigel, Example 14
Description: Each well of a 48-well plate was coated with 200 μL of Matrigel (BD biosciences), and human umbilical vein endothelial cells (HUVECs; Kurabo Industries Ltd.) were seeded at 5×10^4 cells/200 μL/well and cultured. For the culture, HuMedia-EB2 medium (Kurabo Industries, Ltd.) supplemented with 1% FCS was used. VEGF (recombinant human VEGF165, Peprotech) was added at a final concentration of 10 ng/mL to the culture medium to induce tubulogenesis of the vascular endothelial cells. Soybean PC was also added at 10 μM concomitantly with VEGF. At 12 to 16 hours after the start of the culture, the cells were photographed under a microscope. In addition, Hoechst (Boehringer Ingelheim) was added to stain cell nuclei, and newly formed blood vessels were observed. The wells not containing the soybean PC were used as a control.
The same experiment as in Example 12 was performed using soybean PC and other 8 types of PCs. The PCs were classified as Group A or B as with Example 8. The PCs used were as follows (see Table 2).

LLC cells [3] = test: Tumor volume, combination of soybean PC and 5-FU, LLC cancer-bearing mice (Example 12); type: in vivo, mouse; conditions: soybean PC 3 mg/kg i.v. daily day 7 to 20, 5-FU 20 mg/kg i.p. day 7 and 14, volume to day 21
Description: LLC cells (1×10^6 cells in 100 μL of PBS per animal) were subcutaneously injected into C57BL/6NCrSlc mice aged 8 weeks (females, SLC, Inc.) to generate cancer-bearing mice. The mice were assigned to 4 groups: a soybean PC group, a 5-FU group, a soybean PC plus 5-FU group, and a control group (vehicle administration group) (3 animals per group). For the soybean PC group and the soybean PC plus 5-FU group, in the same manner as in Example 1, 3 mg/kg (100 μL) of the soybean PC was administered once daily via the mouse tail vein for […] from day 7 to day 20 post-cancer cell inoculation. For the 5-FU group and the soybean PC plus 5-FU group, 5-FU (Kyowa Hakko Kirin Co., Ltd.) was intraperitoneally administered at a dose of 20 mg/kg on day 7 and day 14 post-cancer cell inoculation. Tumor volume was measured on day 7, day 14 and day 21 post-cancer cell inoculation. The tumor volume was calculated by the following formula: length×width×height×0.5.

| Molecule | immune cell infiltration (intratumoral vessels) | structure of intratumoral vessels (intratumoral vessels) | Lymphocyte Infiltration (LLC cells [1]) | Vein-like morphological change [2] | tumor volume (tumor growth) as compared with the control group (LLC cells [3]) |
| --- | --- | --- | --- | --- | --- |
| phosphatidylcholine | promoted immune cell infiltration | improved the structure of intratumoral vessels | – | – | – |
| CCCCCCCCCCCCCCCC(=O)OC[C@H](COP(=O)([O-])OCC[N+](C)(C)C)OC(=O)CCCCCCCCCCCCC [(1-palmitoyl-2-myristoyl) phosphatidylcholine] | – | – | yes | yes | – |
| O=c1[nH]cc(F)c(=O)[nH]1 [5-FU] | – | – | – | – | tumor growth inhibition |
| CCCCCCCC/C=C\CCCCCCCC(=O)OC[C@H](COP(=O)([O-])OCC[N+](C)(C)C)OC(=O)CCCCCCC/C=C\CCCCCCCC [Dioleoyl phosphatidylcholine, dioleoyl phosphatidylcholine] | – | – | yes | yes | – |
| CCCCCCCC(=O)OCC(COP(=O)([O-])OCC[N+](C)(C)C)OC(=O)CCCCCCC (stereo not drawn) [Dioctanoyl phosphatidylcholine, dioctanoyl phosphatidylcholine] | – | – | yes | yes | – |
| CCCCCCCCCCCCCCCCCC(=O)OC[C@H](COP(=O)([O-])OCC[N+](C)(C)C)OC(=O)CCCCCCCCCCCCCCCCC [Distearoyl phosphatidylcholine, distearoyl phosphatidylcholine] | – | – | yes | yes | – |
| CCCCC/C=C\C/C=C\CCCCCCCC(=O)OC[C@H](COP(=O)([O-])OCC[N+](C)(C)C)OC(=O)CCCCCCC/C=C\C/C=C\CCCCC [Dilinoleoyl phosphatidylcholine, dilinoleoyl phosphatidylcholine] | – | – | yes | yes | – |
| CCCCCCCC/C=C\CCCCCCCC(=O)O[C@H](COC(=O)CCCCCCCCCCCCCCC)COP(=O)([O-])OCC[N+](C)(C)C [(1-palmitoyl-2-oleoyl) phosphatidylcholine] | – | – | yes | yes | – |
| CC/C=C\C/C=C\C/C=C\C/C=C\C/C=C\C/C=C\CCC(=O)OC[C@H](COP(=O)([O-])OCC[N+](C)(C)C)OC(=O)CC/C=C\C/C=C\C/C=C\C/C=C\C/C=C\C/C=C\CC [Didocosahexaenoyl phosphatidylcholine, didocosahexaenoyl phosphatidylcholine] | – | – | – | yes | – |
| CCCCCCCCCCCCCC(=O)OC[C@H](COP(=O)([O-])OCC[N+](C)(C)C)OC(=O)CCCCCCCCCCCCC [Dimyristoyl phosphatidylcholine, dimyristoyl phosphatidylcholine] | – | – | yes | yes | – |
